Source: US20100143319A1, “KIWIFRUIT COMPOSITIONS” (priority 2007, published 2010)

Legend:
[1] = system: mouse small intestine motility; assay: First animal trial: small intestine motility experiment (Peristaltic Inhibition Model, diphenoxylate 0.25 g/l); format: in vivo, Kunmin male mice; conditions: model control: 0.25 g/l diphenoxylate oral, 20 ml/kg BW; mean ± SD, n=10; P<0.01 vs negative control
Text: Experimental animals: 100 Kunmin male mice (class two) were purchased from the animal center in the Academy of Military Medical Sciences of the Chinese PLA, with a weight of 16 to 18 g. • Group 1: 50 mice were randomly divided into 5 experimental groups each of 10 mice (negative control group, model control group and three dosage groups), to test small intestine motility. • Group 2: 50 mice were randomly divided into 5 experimental groups each of 10 mice (negative control group, model control group and three dosage groups), to measure the following parameters: time of first melena defecation, the number of faeces pellets, the weight of faeces, and to observe the shape of the faeces. […]
For this experiment, the dosage was set at 10 times that of the recommended dosage, namely 0.29 g/kgBW per day (4 capsules). […] Oral intubation was used to administer the dose to the mice, at a measured quantity of 20 ml/kgBW.
8 days after oral administration of the different treatments, each group was fasted for 16 hours (with free access to drinking water). Mice in the Peristaltic Inhibition Model control group and the three dose groups were orally administered 0.25 g/l, diphenoxylate at a measured quantity of 20 ml/kg BW. […] The 0 g/kg BW group (negative control group and model control group) were orally administered blank inks with a measured quantity of 20 ml/kg BW. […]

mouse Constipation Model = assay: First animal trial: constipation experiment (Constipation Model, diphenoxylate 0.50 g/l); format: in vivo, Kunmin male mice; conditions: mean ± SD, n=10
Text: Experimental animals: 100 Kunmin male mice (class two) were purchased from the animal center in the Academy of Military Medical Sciences of the Chinese PLA, with a weight of 16 to 18 g. • Group 1: 50 mice were randomly divided into 5 experimental groups each of 10 mice (negative control group, model control group and three dosage groups), to test small intestine motility. • Group 2: 50 mice were randomly divided into 5 experimental groups each of 10 mice (negative control group, model control group and three dosage groups), to measure the following parameters: time of first melena defecation, the number of faeces pellets, the weight of faeces, and to observe the shape of the faeces. Number of qualitative qualification is SCXK M 2002-001.
For this experiment, the dosage was set at 10 times that of the recommended dosage, namely 0.29 g/kgBW per day (4 capsules). The experiment was designed with a low dosage group (0.145 g/kgBW) (2 capsules) and a high dosage group (0.87 g/kgBW) (12 capsules). The kiwifruit extract was dissolved by gentle agitation into sterile distilled water. For both the negative control group (0 g/kgBW) and the model control group sterile distilled water was used as the treatment. Oral intubation was used to administer the dose to the mice, at a measured quantity of 20 ml/kgBW.
Parameters measured in the animal trial were time of defecation, the number of faeces pellets, the weight of the faeces, and visual observation of the shape of the faeces
The different doses of kiwifruit composition were orally administered to the mice, and the shape of the faeces during the eight day feeding trial was observed. […] The mice in the Peristaltic Inhibition Model control group and the three dose groups were orally administered 0.50 g/l of diphenoxylate in the calculated volume of 20 ml/kg BW, whilst the negative group were given an equivalent volume of water. […] The time of the first melena defecation was recorded, along with the number of faecal pellets within 5 hours and the weight of the faeces, as well as the shape of the faeces.

[2] = model control: 0.50 g/l diphenoxylate oral, 20 ml/kg BW, P 0.000 vs negative control

CCOC(=O)C1(c2ccccc2)CCN(CCC(C#N)(c2ccccc2)c2ccccc2)CC1 [diphenoxylate, Diphenoxylate]
Ink Progression (%) [1]: 33.8 ± 7.0 %
Number of faeces pellets defecated within 5 hours (grain) (mouse Constipation Model; [2]): 25 ± 16 grain
Weight of faeces defecated within 5 hours (mouse Constipation Model; [2]): 0.47 ± 0.26 grain
Time of first melena defecation (mouse Constipation Model; model control: diphenoxylate oral, 20 ml/kg BW (0.50 g/l, 0.25 g/L elsewhere in the source), P<0.01 vs negative control): 231.7 ± 81.7 min
